This is an account of results in US20040175691A1, “Use of the KCNQ2 and KCNQ3 genes for the discovery of agents useful in the treatment of neurological disorders” (priority 1998, published 2004).

Like-named read-outs stand apart in the source and are kept apart here.

Test [1] has as its target T1, M-current (Rattus norvegicus, UniProt O88943+O88944).
T1 construct: Recordings of the M-current in sympathetic neurons in intact ganglia were performed at room temperature; from tissue
The following applies: data adapted from Costa and Brown; read-out: IC50 for blockade of M-current; cited from earlier work.

A further test has as its system rat hippocampal neurons. The following applies: rat hippocampal neurons (Lampe & Brown 1991); cited from earlier work.
The target of the next test is T2, elk1 (Rattus norvegicus, UniProt Q9QWS8).
T2 construct: expressed in transfected cells; host or cells: oocytes (Xenopus)
T2 sequence (Q9QWS8 1-1102): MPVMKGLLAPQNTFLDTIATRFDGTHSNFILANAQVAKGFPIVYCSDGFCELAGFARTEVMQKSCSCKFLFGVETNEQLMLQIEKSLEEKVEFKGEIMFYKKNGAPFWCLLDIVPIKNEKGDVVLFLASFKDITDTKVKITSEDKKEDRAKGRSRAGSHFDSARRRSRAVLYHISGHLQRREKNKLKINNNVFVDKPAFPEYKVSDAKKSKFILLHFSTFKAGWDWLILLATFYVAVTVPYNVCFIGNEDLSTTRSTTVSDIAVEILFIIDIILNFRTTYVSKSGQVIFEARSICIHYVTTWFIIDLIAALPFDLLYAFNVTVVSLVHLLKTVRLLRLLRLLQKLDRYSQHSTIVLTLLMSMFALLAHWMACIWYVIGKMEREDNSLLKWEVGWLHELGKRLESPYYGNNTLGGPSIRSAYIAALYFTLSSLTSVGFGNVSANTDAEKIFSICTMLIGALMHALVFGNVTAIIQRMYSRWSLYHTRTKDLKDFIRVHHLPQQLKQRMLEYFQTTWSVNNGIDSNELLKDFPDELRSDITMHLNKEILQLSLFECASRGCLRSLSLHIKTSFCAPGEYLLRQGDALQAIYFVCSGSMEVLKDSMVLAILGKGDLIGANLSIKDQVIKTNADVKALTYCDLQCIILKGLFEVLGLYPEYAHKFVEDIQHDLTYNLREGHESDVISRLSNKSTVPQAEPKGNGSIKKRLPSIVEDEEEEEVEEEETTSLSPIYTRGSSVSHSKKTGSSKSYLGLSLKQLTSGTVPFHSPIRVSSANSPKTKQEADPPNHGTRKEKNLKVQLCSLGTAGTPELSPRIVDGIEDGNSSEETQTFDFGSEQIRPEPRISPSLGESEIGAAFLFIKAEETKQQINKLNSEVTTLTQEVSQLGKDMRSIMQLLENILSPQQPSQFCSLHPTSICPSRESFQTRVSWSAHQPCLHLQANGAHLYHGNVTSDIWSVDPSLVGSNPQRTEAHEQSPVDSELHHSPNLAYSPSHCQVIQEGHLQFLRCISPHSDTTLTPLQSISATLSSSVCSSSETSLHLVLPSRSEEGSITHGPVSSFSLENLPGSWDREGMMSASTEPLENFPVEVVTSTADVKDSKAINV
As to the kind of experiment: Blockade of cloned elk1 channel in oocytes. Format: cell-based.

The conditions of test [2]: mammalian CNS; cited from earlier work.
Another test has as its target T3, KCNQ2 + KCNQ3 (UniProt O43526+O88944, DEL417-446).
T3 construct: Full-length KCNQ2 cDNAs were amplified from adult human brain cDNA; Multiple full-length cDNA clones were amplified in independent PCR reactions from rat SCG cDNA; expressed in transfected cells; host or cells: Xenopus oocytes injected with cRNA
As to the kind of experiment: Blockade of KCNQ2+KCNQ3 channels expressed in Xenopus oocytes. The format is cell-based, human KCNQ2, rat KCNQ3. Conditions: mean±s.e.m. The procedure: Method: Full-length KCNQ2 cDNAs were amplified from adult human brain cDNA using the following primers ([…], […]) with the Expand Fidelity enzyme mixture (Boehringer Mannheim, Indianapolis). […] This region is also alternatively spliced in the KCNQ2 cDNA clone described by Biervert et al. (1998). Preparation, injection of cRNA and recording from oocytes was performed at room temperature as described previously (Dixon et al. 1996). The standard extracellular recording solution contained: 82 mM NaCl, 2 mM KCl, 1.8 mM CaCl2, 1 mM MgCl2, and 5 mM Na-HEPES (pH 7.6). Data collection and analysis were performed using pClamp software (Axon Instruments, Foster City, Calif.).
Holding potential was −60 mV and the cell was repetitively depolarized to −30 mV for 1 minute to reach steady-state blockade. Tail currents were recorded at −50 mV.
IC50 values are all expressed in μM, mean±s.e.m. In cases where the IC50 values were greater than 100 μM the exact value is not reported due to limited solubility in the drug.

The target of test [3] is T1, M-current. As to the kind of experiment: Blockade of native M-current in SCG neurons (voltage clamp, intact ganglia). Format: cell-based. The following applies: native M-current, SCG neurons; mean±s.e.m. The procedure:
(§1) Method: Recordings of the M-current in sympathetic neurons in intact ganglia were performed at room temperature as described previously (Wang and McKinnon, 1995). The standard extracellular recording solution was: NaCl (133 mM, KCl (4.7 mM), NaH2PO4 (1.3 mM), NaHCO3 (16.3 mM), CaCl2 (2 mM), MgCl2 (1.2 mM) and glucose (1.4 g/liter), bubbled with 95% O2-5% CO2 to give pH 7.2-7.4.
A. Blockade of M-current in SCG neurons by XE991. Holding potential was −30 mV and step potential was −50 mV for 1 second. The shift in holding current following drug application is due to the inhibition of M-current activated at the holding potential.
Maximal block of native M-current was 93±2%. Data points are averages and error bars represent s.e.m.

In test [4] the test system is phasic sympathetic neurons. The test is described as follows: Firing properties of phasic sympathetic neurons from the SCG. Format: cell-based, rat. Conditions: 10 μM. The procedure:
as §1

What is called IC50 is the midpoint of a concentration-inhibition curve.

Take `O=C1N(c2ccccc2)c2ccccc2C1(Cc1ccncc1)Cc1ccncc1` [Linopirdine, 3,3-bis(4-pyridinylmethyl)-1-phenylindolin-2-one]: the half-inhibitory concentration (IC50) is 7 ± 1.1 µM at M-current [1]; 144 µM at elk1 (at +30 mV); 26 µM against elk1 (at −20 mV); 37 ± 4 µM against elk1 (step to −10 mV, voltage dependent); 4 ± 0.5 µM at KCNQ2 + KCNQ3. Besides, in the test on rat hippocampal neurons, the Spike frequency adaptation result was “reduced spike frequency adaptation”. Besides, in test [2], the “K+-stimulated release of acetylcholine, dopamine and glutamate” value is “enhance K^+-stimulated release of acetylcholine, dopamine and glutamate”.

In the case of `O=C1c2ccccc2C(Cc2ccncc2)(Cc2ccncc2)c2ccccc21` [XE991, 10,10-bis(4-pyridinylmethyl)-9(10H)-anthracenone], the IC50 was 0.98 ± 0.15 µM against M-current [3], more than 100 µM against elk1 (oocytes) and 0.6 ± 0.1 µM at KCNQ2 + KCNQ3. For the same compound, the “Effect on firing properties of phasic neurons” value in test [4] is given as “converts the firing properties from phasic to tonic”.
